According to the NIST ThermoML archive (doi:10.1016/j.jct.2019.07.011):

Experiment: xn = mol fraction of the nth substance listed
Conditions: Gas, Frequency=0.002 MHz, Spherical resonator

[He] [helium] + C
Conditions	speed of sound [m/s]
350 K, 10503 kPa, x2 = 0.8999	518.95
350 K, 10534 kPa, x2 = 0.95	503.83
350 K, 11996 kPa, x2 = 0.8999	524.33
350 K, 12032 kPa, x2 = 0.95	509.02
350 K, 13418 kPa, x2 = 0.95	514.87
350 K, 13498 kPa, x2 = 0.8999	530.47
350 K, 14498 kPa, x2 = 0.8999	535.04
350 K, 14519 kPa, x2 = 0.95	519.93
350 K, 15505 kPa, x2 = 0.8999	539.96
350 K, 15599 kPa, x2 = 0.95	525.36
350 K, 16500 kPa, x2 = 0.8999	545.16
350 K, 16626 kPa, x2 = 0.95	530.93
350 K, 17495 kPa, x2 = 0.8999	550.65
350 K, 17512 kPa, x2 = 0.95	536.05
350 K, 18437 kPa, x2 = 0.95	541.71
350 K, 18509 kPa, x2 = 0.8999	556.57
350 K, 19237 kPa, x2 = 0.95	546.81
350 K, 19509 kPa, x2 = 0.8999	562.67
350 K, 20020 kPa, x2 = 0.95	552
350 K, 20352 kPa, x2 = 0.8999	568.05
350 K, 20966 kPa, x2 = 0.95	558.46
375 K, 480.89 kPa, x2 = 0.8999	517.61
375 K, 508.08 kPa, x2 = 0.95	506.89
375 K, 970.3 kPa, x2 = 0.95	506.94
375 K, 974.52 kPa, x2 = 0.8999	518
375 K, 1977.8 kPa, x2 = 0.8999	518.72
375 K, 1994.9 kPa, x2 = 0.95	507.23
375 K, 2982.4 kPa, x2 = 0.8999	519.78
375 K, 3486.1 kPa, x2 = 0.95	508.11
375 K, 4474.8 kPa, x2 = 0.8999	521.69
375 K, 4994.3 kPa, x2 = 0.95	509.68
375 K, 5993.9 kPa, x2 = 0.8999	524.5
375 K, 6507.4 kPa, x2 = 0.95	511.94
375 K, 7482.9 kPa, x2 = 0.8999	527.66
375 K, 8485.9 kPa, x2 = 0.8999	530.3
375 K, 8534.5 kPa, x2 = 0.95	516.24
375 K, 9494.9 kPa, x2 = 0.8999	533.16
375 K, 10491 kPa, x2 = 0.8999	536.22
375 K, 10526 kPa, x2 = 0.95	521.64
375 K, 11482 kPa, x2 = 0.8999	539.61
375 K, 12041 kPa, x2 = 0.95	526.64
375 K, 12500 kPa, x2 = 0.8999	543.46
375 K, 13432 kPa, x2 = 0.95	531.87
375 K, 13465 kPa, x2 = 0.8999	547.3
375 K, 14475 kPa, x2 = 0.8999	551.75
375 K, 14510 kPa, x2 = 0.95	536.35
375 K, 15493 kPa, x2 = 0.8999	556.41
375 K, 15609 kPa, x2 = 0.95	541.3
375 K, 16440 kPa, x2 = 0.8999	560.93
375 K, 16573 kPa, x2 = 0.95	545.93
375 K, 17490 kPa, x2 = 0.8999	566.34
375 K, 17518 kPa, x2 = 0.95	550.72
375 K, 18172 kPa, x2 = 0.8999	569.92
375 K, 18322 kPa, x2 = 0.95	555.02
375 K, 18705 kPa, x2 = 0.8999	572.84
375 K, 19198 kPa, x2 = 0.95	559.9
